Data as given in US20240199649A1 (Biosplice Therapeutics, Inc., priority 2022, published 2024).

Biological target: recombinant DYRK1A kinase (Homo sapiens (Human), UniProt Q13627)
Assay: DYRK1A kinase assay (Ser/Thr 18 peptide Z-lyte FRET assay)
Type: biochemical
Conditions: DYRK1A 0.25 μg/mL, ATP 15 μM, Ser/Thr peptide 18 4 μM; one hour at room temperature; 11-point dose-response, duplicate
Protocol: Representative compounds were screened using the assay procedure for DYRK1A kinase activity as described below.
Each compound was dissolved in DMSO as a 10 mM stock and used to prepare compound source plates.
This is a non-radioactive assay using fluorescence resonance energy transfer (FRET) between coumarin and fluorescein to detect kinase activity which is represented as a ratio of coumarin emission/fluorescein emission.
The mixture was allowed to incubate with the representative compounds for one hour at room temperature. All reactions were performed in duplicate. Unphosphorylated (“0% Control”) and phosphorylated (“100% control”) forms of Ser/Thr 18 served as control reactions. Additionally, an 11-point dose-response curve of Staurosporine (1 uM top) was run to serve as a positive compound control.
After incubation, Development Reagent A was diluted in Development Buffer then added to the reaction and allowed to further incubate for one hour at room temperature.
Dose-response curves were generated, and inhibitory concentration (IC50) values were calculated using non-linear regression curve fit in the Dotmatics' Studies Software (Bishops Stortford, UK).

SMILES	IC50
CNc1nc(N[C@H]2CCN(C)CC2(F)F)nn2ccc(-c3ccc4nc(C)n(CC(F)F)c4n3)c12 [Compound 215, (S)—N^2-(3,3-Difluoro-1-methylpiperidin-4-yl)-5-(3-(2,2-difluoroethyl)-2-methyl-3H-imidazo[4,5-b]pyridin-5-yl)-N^4-methylpyrrolo[2,1-f][1,2,4]triazine-2,4-diamine]	4.4 nM
CNc1nc(N[C@H]2CCN(C3COC3)CC2(F)F)nn2ccc(-c3ccc4nc(C)n(CC(F)F)c4n3)c12 [Compound 217, (S)—N^2-(3,3-Difluoro-1-(oxetan-3-yl)piperidin-4-yl)-5-(3-(2,2-difluoroethyl)-2-methyl-3H-imidazo[4,5-b]pyridin-5-yl)-N^4-methylpyrrolo[2,1-f][1,2,4]triazine-2,4-diamine]	1.7 nM
CNc1nc(NC2(C)CCOCC2)nn2ccc(-c3ccc4nc(C)n(CC(F)F)c4n3)c12 [Compound 218, 5-(3-(2,2-Difluoroethyl)-2-methyl-3H-imidazo[4,5-b]pyridin-5-yl)-N^4-methyl-N^2-(4-methyltetrahydro-2H-pyran-4-yl)pyrrolo[2,1-f][1,2,4]triazine-2,4-diamine]	14.2 nM
CNc1nc(N[C@@H]2[C@@H]3CNC[C@@H]32)nn2ccc(-c3ccc4nc(C)n(CC(F)F)c4n3)c12 [Compound 219, N^2-((1R,5S,6r)-3-Azabicyclo[3.1.0]hexan-6-yl)-5-(3-(2,2-difluoroethyl)-2-methyl-3H-imidazo[4,5-b]pyridin-5-yl)-N^4-methylpyrrolo[2,1-f][1,2,4]triazine-2,4-diamine]	6.7 nM
CNc1nc(N[C@@H]2[C@@H]3CN(C(C)=O)C[C@@H]32)nn2ccc(-c3ccc4nc(C)n(CC(F)F)c4n3)c12 [Compound 220, 1-((1R,5S,6r)-6-((5-(3-(2,2-Difluoroethyl)-2-methyl-3H-imidazo[4,5-b]pyridin-5-yl)-4-(methylamino)pyrrolo[2,1-f][1,2,4]triazin-2-yl)amino)-3-azabicyclo[3.1.0]hexan-3-yl)ethan-1-one]	9.7 nM
CNc1nc(N[C@@H]2[C@@H]3COC[C@@H]32)nn2ccc(-c3ccc4nc(C)n(CC(F)F)c4n3)c12 [Compound 222, N^2-((1R,5S,6s)-3-Oxabicyclo[3.1.0]hexan-6-yl)-5-(3-(2,2-difluoroethyl)-2-methyl-3H-imidazo[4,5-b]pyridin-5-yl)-N^4-methylpyrrolo[2,1-f][1,2,4]triazine-2,4-diamine]	4.1 nM
CNc1nc(N[C@H]2CC[C@@]3(CCO3)CC2)nn2ccc(-c3ccc4nc(C)n(CC(F)F)c4n3)c12 [Compound 226, 5-(3-(2,2-Difluoroethyl)-2-methyl-3H-imidazo[4,5-b]pyridin-5-yl)-N^4-methyl-N^2-((4r,7r)-1-oxaspiro[3.5]nonan-7-yl)pyrrolo[2,1-f][1,2,4]triazine-2,4-diamine]	2 nM
CNc1nc(N[C@H]2CC[C@]3(CCO3)CC2)nn2ccc(-c3ccc4nc(C)n(CC(F)F)c4n3)c12 [Compound 227, 5-(3-(2,2-Difluoroethyl)-2-methyl-3H-imidazo[4,5-b]pyridin-5-yl)-N^4-methyl-N^2-((4s,7s)-1-oxaspiro[3.5]nonan-7-yl)pyrrolo[2,1-f][1,2,4]triazine-2,4-diamine]	3.3 nM
CNc1nc(NC2C3CCC2CN(C)C3)nn2ccc(-c3ccc4nc(C)n(CC(F)F)c4n3)c12 (stereo not drawn) [Compound 228, 5-(3-(2,2-Difluoroethyl)-2-methyl-3H-imidazo[4,5-b]pyridin-5-yl)-N^4-methyl-N^2-(3-methyl-3-azabicyclo[3.2.1]octan-8-yl)pyrrolo[2,1-f][1,2,4]triazine-2,4-diamine]	2.8 nM
CNc1nc(N[C@@H]2CCNCC2(F)F)nn2ccc(-c3ccn4nccc4n3)c12 [Compound 339, (R)—N^2-(3,3-Difluoropiperidin-4-yl)-N^4-methyl-5-(pyrazolo[1,5-a]pyrimidin-5-yl)pyrrolo[2,1-f][1,2,4]triazine-2,4-diamine]	2.2 nM
CNc1nc(N[C@@H]2CCN(C3COC3)CC2(F)F)nn2ccc(-c3ccc4ncn(CC(F)F)c4n3)c12 [Compound 351, (R)—N^2-(3,3-Difluoro-1-(oxetan-3-yl)piperidin-4-yl)-5-(3-(2,2-difluoroethyl)-3H-imidazo[4,5-b]pyridin-5-yl)-N^4-methylpyrrolo[2,1-f][1,2,4]triazine-2,4-diamine]	365 nM
CNc1nc(N[C@H]2C[C@H](C(C)(C)O)C2)nn2ccc(-c3ccc4nc(C)n(CC(F)F)c4n3)c12 [Compound 355, 2-(trans-3-((5-(3-(2,2-Difluoroethyl)-2-methyl-3H-imidazo[4,5-b]pyridin-5-yl)-4-(methylamino)pyrrolo[2,1-f][1,2,4]triazin-2-yl)amino)cyclobutyl)propan-2-ol]	4.2 nM
CNc1nc(N[C@H]2CN(C)CC2(F)F)nn2ccc(-c3ccc4nc(C)n(CC(F)F)c4n3)c12 [Compound 363, (S)—N^2-(4,4-Difluoro-1-methylpyrrolidin-3-yl)-5-(3-(2,2-difluoroethyl)-2-methyl-3H-imidazo[4,5-b]pyridin-5-yl)-N^4-methylpyrrolo[2,1-f][1,2,4]triazine-2,4-diamine]	2.1 nM
CCN1C[C@H](Nc2nc(NC)c3c(-c4ccc5nc(C)n(CC(F)F)c5n4)ccn3n2)C(F)(F)C1 [Compound 365, (S)-5-(3-(2,2-Difluoroethyl)-2-methyl-3H-imidazo[4,5-b]pyridin-5-yl)-N^2-(1-ethyl-4,4-difluoropyrrolidin-3-yl)-N^4-methylpyrrolo[2,1-f][1,2,4]triazine-2,4-diamine]	6.3 nM

The next compounds have a lower IC50 than those just listed; values first:

IC50	SMILES
0.8 nM	CNc1nc(N[C@H]2CCN(C)C[C@H]2F)nn2ccc(-c3ccc4nc(C)n(CC(F)F)c4n3)c12 [Compound 204, 5-(3-(2,2-Difluoroethyl)-2-methyl-3H-imidazo[4,5-b]pyridin-5-yl)-N^2-((3R,4S)-3-fluoro-1-methylpiperidin-4-yl)-N^4-methylpyrrolo[2,1-f][1,2,4]triazine-2,4-diamine]
1 nM	CNc1nc(N[C@@H]2CCN(C)C[C@@H]2F)nn2ccc(-c3ccc4nc(C)n(CC(F)F)c4n3)c12 [Compound 205, 5-(3-(2,2-Difluoroethyl)-2-methyl-3H-imidazo[4,5-b]pyridin-5-yl)-N^2-((3S,4R)-3-fluoro-1-methylpiperidin-4-yl)-N^4-methylpyrrolo[2,1-f][1,2,4]triazine-2,4-diamine]
1.1 nM	CNc1nc(N[C@@H]2CCN(C)CC2(F)F)nn2ccc(-c3ccc4nc(C)n(CC(F)F)c4n3)c12 [Compound 214, (R)—N^2-(3,3-Difluoro-1-methylpiperidin-4-yl)-5-(3-(2,2-difluoroethyl)-2-methyl-3H-imidazo[4,5-b]pyridin-5-yl)-N^4-methylpyrrolo[2,1-f][1,2,4]triazine-2,4-diamine]
0.8 nM	CNc1nc(N[C@@H]2CCN(C3COC3)CC2(F)F)nn2ccc(-c3ccc4nc(C)n(CC(F)F)c4n3)c12 [Compound 216, (R)—N^2-(3,3-Difluoro-1-(oxetan-3-yl)piperidin-4-yl)-5-(3-(2,2-difluoroethyl)-2-methyl-3H-imidazo[4,5-b]pyridin-5-yl)-N^4-methylpyrrolo[2,1-f][1,2,4]triazine-2,4-diamine]
1.6 nM	CNc1nc(N[C@H]2[C@@H]3COC[C@@H]32)nn2ccc(-c3ccc4nc(C)n(CC(F)F)c4n3)c12 [Compound 221, N^2-((1R,5S,6r)-3-Oxabicyclo[3.1.0]hexan-6-yl)-5-(3-(2,2-difluoroethyl)-2-methyl-3H-imidazo[4,5-b]pyridin-5-yl)-N^4-methylpyrrolo[2,1-f][1,2,4]triazine-2,4-diamine]
1.1 nM	CNc1nc(NC2CC3(CCN(C(C)=O)CC3)C2)nn2ccc(-c3ccc4nc(C)n(CC(F)F)c4n3)c12 [Compound 223, 1-(2-((5-(3-(2,2-Difluoroethyl)-2-methyl-3H-imidazo[4,5-b]pyridin-5-yl)-4-(methylamino)pyrrolo[2,1-f][1,2,4]triazin-2-yl)amino)-7-azaspiro[3.5]nonan-7-yl)ethan-1-one]
0.2 nM	CNc1nc(NC2CCC3(CC2)CN(C(C)=O)C3)nn2ccc(-c3ccc4nc(C)n(CC(F)F)c4n3)c12 [Compound 224, 1-(7-((5-(3-(2,2-Difluoroethyl)-2-methyl-3H-imidazo[4,5-b]pyridin-5-yl)-4-(methylamino)pyrrolo[2,1-f][1,2,4]triazin-2-yl)amino)-2-azaspiro[3.5]nonan-2-yl)ethan-1-one]
0.8 nM	CNc1nc(NC2CCC3(CC2)COC3)nn2ccc(-c3ccc4nc(C)n(CC(F)F)c4n3)c12 [Compound 225, 5-(3-(2,2-Difluoroethyl)-2-methyl-3H-imidazo[4,5-b]pyridin-5-yl)-N^4-methyl-N^2-(2-oxaspiro[3.5]nonan-7-yl)pyrrolo[2,1-f][1,2,4]triazine-2,4-diamine]
0.6 nM	CNc1nc(N[C@@H]2CN(C)CC2(F)F)nn2ccc(-c3ccc4nc(C)n(CC(F)F)c4n3)c12 [Compound 364, (R)—N^2-(4,4-Difluoro-1-methylpyrrolidin-3-yl)-5-(3-(2,2-difluoroethyl)-2-methyl-3H-imidazo[4,5-b]pyridin-5-yl)-N^4-methylpyrrolo[2,1-f][1,2,4]triazine-2,4-diamine]
1.4 nM	CCN1C[C@@H](Nc2nc(NC)c3c(-c4ccc5nc(C)n(CC(F)F)c5n4)ccn3n2)C(F)(F)C1 [Compound 366, (R)-5-(3-(2,2-Difluoroethyl)-2-methyl-3H-imidazo[4,5-b]pyridin-5-yl)-N^2-(1-ethyl-4,4-difluoropyrrolidin-3-yl)-N^4-methylpyrrolo[2,1-f][1,2,4]triazine-2,4-diamine]
